# Data as given in ChEMBL document CHEMBL4808194, “Design, synthesis and biological evaluation of novel 2,4-disubstituted quinazoline derivatives targeting H1975 cells via EGFR-PI3K signaling pathway” (Bioorg Med Chem, 2021).
# Activity calls are given as the source filed them. No cut-off for these calls is given here.
# Key:
# [1] = tested on: NCI-H1975; experiment: Cell cycle arrest in human NCI-H1975 cells assessed as accumulation at G1 phase at 2 uM incubated for 24 hrs by propidium iodide staining based flow cytometric analysis (reference value: 50.56 %); format: functional
# [2] = tested on: NCI-H1975; experiment: Induction of apoptosis in human NCI-H1975 cells assessed as shrunken and broken nuclear morphology at 2 to 8 uM incubated for 48 hrs by DAPI staining based fluorescence microscopic analysis; format: functional, cell-based; details: dose 2-8 µM
# [3] = tested on: NCI-H1975; experiment: Induction of apoptosis in human NCI-H1975 cells assessed as viable cells at 2 uM incubated for 48 hrs Annexin V-FITC/PI staining based flow cytometric analysis (reference value: 90.9%); format: functional; details: read-out: Activity
# [4] = tested on: NCI-H1975; experiment: Inhibition of cell migration in human NCI-H1975 cells incubated for 72 hrs by scratch wound healing assay; format: functional, cell-based; details: dose 0.5-2 µM
# [5] = tested on: NCI-H1975; experiment: Inhibition of colony formation in human NCI-H1975 cells assessed as fewer and smaller cell colonies incubated for 7 days by crystal violet staining based microscopic analysis; format: functional; details: dose 0.5-2 µM, time 7.0 day
# [6] = tested on: MDA-MB-231; experiment: cells; format: functional, cell-based; details: Homo sapiens, MDA-MB-231, 72 h
# [7] = tested on: MGC-803; experiment: cells; format: functional, cell-based; details: Homo sapiens, MGC-803, 72 h
# Description: Antiproliferative activity against human MGC-803 cells assessed as inhibition of cell growth incubated for 72 hrs by MTT assay
# [8] = tested on: NCI-H1975; experiment: cells; format: functional, cell-based; details: Homo sapiens, NCI-H1975, 72 h
# Description: Antiproliferative activity against human NCI-H1975 cells assessed as inhibition of cell growth incubated for 72 hrs by MTT assay
# [9] = tested on: PC-3; experiment: cells; format: functional, cell-based; details: Homo sapiens, PC-3, 72 h
# Description: Antiproliferative activity against human PC-3 cells assessed as inhibition of cell growth incubated for 72 hrs by MTT assay
# [10] = tested on: NCI-H1975; experiment: Cell cycle arrest in human NCI-H1975 cells assessed as accumulation at S phase at 2 uM incubated for 24 hrs by propidium iodide staining based flow cytometric analysis (reference value: 30.87%); format: functional
# [11] = tested on: NCI-H1975; experiment: Cell cycle arrest in human NCI-H1975 cells assessed as accumulation at G2 phase at 2 uM incubated for 24 hrs by propidium iodide staining based flow cytometric analysis (reference value: 18.57 %); format: functional
# [12] = tested on: NCI-H1975; experiment: Cell cycle arrest in human NCI-H1975 cells assessed as accumulation at G1 phase at 4 uM incubated for 24 hrs by propidium iodide staining based flow cytometric analysis (reference value: 50.56 %); format: functional
# [13] = tested on: NCI-H1975; experiment: Cell cycle arrest in human NCI-H1975 cells assessed as accumulation at S phase at 4 uM incubated for 24 hrs by propidium iodide staining based flow cytometric analysis (reference value: 30.87%); format: functional
# [14] = tested on: NCI-H1975; experiment: Cell cycle arrest in human NCI-H1975 cells assessed as accumulation at G2 phase at 4 uM incubated for 24 hrs by propidium iodide staining based flow cytometric analysis (reference value: 18.57 %); format: functional
# [15] = tested on: NCI-H1975; experiment: Cell cycle arrest in human NCI-H1975 cells assessed as accumulation at G1 phase at 8 uM incubated for 24 hrs by propidium iodide staining based flow cytometric analysis (reference value: 50.56 %); format: functional
# [16] = tested on: NCI-H1975; experiment: Cell cycle arrest in human NCI-H1975 cells assessed as accumulation at S phase at 8 uM incubated for 24 hrs by propidium iodide staining based flow cytometric analysis (reference value: 30.87%); format: functional
# [17] = tested on: NCI-H1975; experiment: Cell cycle arrest in human NCI-H1975 cells assessed as accumulation at G2 phase at 8 uM incubated for 24 hrs by propidium iodide staining based flow cytometric analysis (reference value: 18.57 %); format: functional
# [18] = tested on: NCI-H1975; experiment: Induction of apoptosis in human NCI-H1975 cells assessed as increase in p53 level at 2 to 8 uM by western blot analysis; format: functional, cell-based; details: dose 2-8 µM
# [19] = tested on: NCI-H1975; experiment: Induction of apoptosis in human NCI-H1975 cells assessed as increase in Bax level at 2 to 8 uM by western blot analysis; format: functional, cell-based; details: dose 2-8 µM
# [20] = tested on: NCI-H1975; experiment: Induction of apoptosis in human NCI-H1975 cells assessed as decrease in Bcl2 level at 2 to 8 uM by western blot analysis; format: functional, cell-based; details: dose 2-8 µM
# [21] = tested on: NCI-H1975; experiment: Induction of ROS generation in human NCI-H1975 cells assessed increase in ROS level at 2 to 8 uM incubated for 48 hrs by DHE staining based fluorescence microscopy; format: functional, cell-based; details: dose 2-8 µM
# [22] = target: Epidermal growth factor receptor (Homo sapiens) (UniProt P00533); experiment: Inhibition of EGFR in human NCI-H1975 cells assessed as reduction in EGFR phosphorylation level by Western blot analysis; format: cell-based; details: dose 2-8 µM
# [23] = target: Epidermal growth factor receptor (Homo sapiens) (UniProt P00533); experiment: Inhibition of EGFR in human NCI-H1975 cells assessed as reduction in PI3K phosphorylation level by Western blot analysis; format: cell-based; details: dose 2-8 µM
# [24] = tested on: NCI-H1975; experiment: Induction of apoptosis in human NCI-H1975 cells assessed as early apoptotic cells at 2 uM incubated for 48 hrs Annexin V-FITC/PI staining based flow cytometric analysis (reference value: 1%); format: functional
# [25] = tested on: NCI-H1975; experiment: Induction of apoptosis in human NCI-H1975 cells assessed as late apoptotic cells at 2 uM incubated for 48 hrs Annexin V-FITC/PI staining based flow cytometric analysis (reference value: 2.53%); format: functional
# [26] = tested on: NCI-H1975; experiment: Induction of apoptosis in human NCI-H1975 cells assessed as necrotic cells at 2 uM incubated for 48 hrs Annexin V-FITC/PI staining based flow cytometric analysis (reference value: 4.74%); format: functional
# [27] = tested on: NCI-H1975; experiment: Induction of apoptosis in human NCI-H1975 cells assessed as viable cells at 4 uM incubated for 48 hrs Annexin V-FITC/PI staining based flow cytometric analysis (reference value: 90.9%); format: functional; details: read-out: Activity
# [28] = tested on: NCI-H1975; experiment: Induction of apoptosis in human NCI-H1975 cells assessed as early apoptotic cells at 4 uM incubated for 48 hrs Annexin V-FITC/PI staining based flow cytometric analysis (reference value: 1%); format: functional
# [29] = tested on: NCI-H1975; experiment: Induction of apoptosis in human NCI-H1975 cells assessed as late apoptotic cells at 4 uM incubated for 48 hrs Annexin V-FITC/PI staining based flow cytometric analysis (reference value: 2.53%); format: functional
# [30] = tested on: NCI-H1975; experiment: Induction of apoptosis in human NCI-H1975 cells assessed as necrotic cells at 4 uM incubated for 48 hrs Annexin V-FITC/PI staining based flow cytometric analysis (reference value: 4.74%); format: functional
# [31] = tested on: NCI-H1975; experiment: Induction of apoptosis in human NCI-H1975 cells assessed as viable cells at 8 uM incubated for 48 hrs Annexin V-FITC/PI staining based flow cytometric analysis (reference value: 90.9%); format: functional; details: read-out: Activity
# [32] = tested on: NCI-H1975; experiment: Induction of apoptosis in human NCI-H1975 cells assessed as early apoptotic cells at 8 uM incubated for 48 hrs Annexin V-FITC/PI staining based flow cytometric analysis (reference value: 1%); format: functional
# [33] = tested on: NCI-H1975; experiment: Induction of apoptosis in human NCI-H1975 cells assessed as late apoptotic cells at 8 uM incubated for 48 hrs Annexin V-FITC/PI staining based flow cytometric analysis (reference value: 2.53%); format: functional
# [34] = tested on: NCI-H1975; experiment: Induction of apoptosis in human NCI-H1975 cells assessed as necrotic cells at 8 uM incubated for 48 hrs Annexin V-FITC/PI staining based flow cytometric analysis (reference value: 4.74%); format: functional
# Sequence of Epidermal growth factor receptor (Homo sapiens) (P00533 whole entry): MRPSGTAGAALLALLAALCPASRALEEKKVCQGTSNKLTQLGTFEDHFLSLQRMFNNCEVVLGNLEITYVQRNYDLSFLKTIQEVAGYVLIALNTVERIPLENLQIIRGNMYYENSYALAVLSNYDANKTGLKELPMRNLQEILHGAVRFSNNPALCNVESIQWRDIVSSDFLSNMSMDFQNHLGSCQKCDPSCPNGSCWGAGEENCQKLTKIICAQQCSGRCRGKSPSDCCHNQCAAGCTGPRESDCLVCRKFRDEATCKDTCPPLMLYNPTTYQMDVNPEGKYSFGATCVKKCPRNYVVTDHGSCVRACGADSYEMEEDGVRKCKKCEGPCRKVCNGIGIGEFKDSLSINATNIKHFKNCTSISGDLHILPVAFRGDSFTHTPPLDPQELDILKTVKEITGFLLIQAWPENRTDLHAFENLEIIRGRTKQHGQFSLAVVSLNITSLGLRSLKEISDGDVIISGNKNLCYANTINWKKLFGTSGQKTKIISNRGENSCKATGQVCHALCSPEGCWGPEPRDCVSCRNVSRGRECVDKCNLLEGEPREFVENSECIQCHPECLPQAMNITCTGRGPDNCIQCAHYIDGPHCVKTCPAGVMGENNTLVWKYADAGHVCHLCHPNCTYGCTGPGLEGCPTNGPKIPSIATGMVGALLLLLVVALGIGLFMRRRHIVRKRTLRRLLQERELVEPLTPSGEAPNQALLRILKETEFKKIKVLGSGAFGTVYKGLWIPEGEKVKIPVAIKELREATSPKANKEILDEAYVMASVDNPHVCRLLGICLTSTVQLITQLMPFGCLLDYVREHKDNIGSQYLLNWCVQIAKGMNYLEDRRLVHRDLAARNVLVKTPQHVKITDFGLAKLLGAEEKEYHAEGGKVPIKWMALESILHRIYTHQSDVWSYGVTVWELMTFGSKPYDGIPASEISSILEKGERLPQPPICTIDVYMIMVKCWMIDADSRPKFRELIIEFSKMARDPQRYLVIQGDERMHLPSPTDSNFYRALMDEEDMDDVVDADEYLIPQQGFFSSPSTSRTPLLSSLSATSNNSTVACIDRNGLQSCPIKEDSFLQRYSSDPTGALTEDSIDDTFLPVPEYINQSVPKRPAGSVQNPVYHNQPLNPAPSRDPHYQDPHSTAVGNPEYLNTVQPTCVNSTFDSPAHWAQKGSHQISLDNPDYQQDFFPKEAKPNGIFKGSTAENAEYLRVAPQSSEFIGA
compound,measurement,setting,value
C=CC(=O)Nc1cccc(NC(=O)CSc2nc(Nc3cccc(F)c3)c3ccccc3n2)c1,Activity,[1],55.32%
same,Activity,[2],Active
same,viability at 2 µM,[3],78.5%
same,inhibition,[4],Dose-Dependent Effect
same,inhibition,[5],Dose-Dependent Effect
same,IC50,[6],8.16 µM
same,IC50,[7],6.25 µM
same,IC50,[8],2.03 µM
same,IC50,[9],5.37 µM
same,Activity,[10],28.59%
same,Activity,[11],16.09%
same,Activity,[12],62.46%
same,Activity,[13],32.22%
same,Activity,[14],5.32%
same,Activity,[15],63.16%
same,Activity,[16],33.44%
same,Activity,[17],3.4%
same,Activity,[18],Active
same,Activity,[19],Active
same,Activity,[20],Active
same,Activity,[21],Active
same,inhibition,[22],Dose-Dependent Effect
same,inhibition,[23],Dose-Dependent Effect
same,Activity,[24],7.91%
same,Activity,[25],8.83%
same,Activity,[26],4.75%
same,viability at 4 µM,[27],63.7%
same,Activity,[28],9.73%
same,Activity,[29],14.2%
same,Activity,[30],12.4%
same,viability at 8 µM,[31],53.4%
same,Activity,[32],18.2%
same,Activity,[33],32.3%
same,Activity,[34],14.3%
